The source of these data is patent publication US10457639B2, “Fluorescent regulators of RASSF1A expression and human cancer cell proliferation” (GEORGETOWN UNIVERSITY, priority 2008, dated 2019).

Data set [1] relates to cyclin D1. The data set is described as follows: RT-PCR of cyclin D1 mRNA in treated PC-3 cells. The settings on record: 5 μM, 24 hours. Format: cell-based, human. The method, then: Representative photograph of an experiment repeated thrice. PC-3 cells were treated 24 hours with either 15 μM for compounds 6, 7, 7a, 8, 9, 10 or 5 μM for compound KED-4-69 (compound 6a) before RNA extraction and RT-PCR amplification.
Reverse Transcriptase-polymerase Chain Reaction (RT-PCR). From PC-3 cells incubated 24 hours with either 15 μM of compound 6, 7, 7a, 8, 9, 10 or 5 μM of KED-4-69 (compound 6a), RNA was extracted with TRIzol solution (Invitrogen, Carlsbad, Calif.) and genes of interest were amplified using 500 ng of total RNA reverse-transcribed to cDNA using a Superscript II kit (Invitrogen) with random hexamers. Human-specific primers were designed using the Primer Quest program and purchased from Integrated DNA Technologies, Inc. (Coralville, Iowa). Their sequences and product band sizes are: cyclin D1 forward primer 5′-[…]-3′ (SEQ ID NO:1), cyclin D1 reverse primer 5′-[…]-3′ (SEQ ID NO:2) (475 bp) and GAPDH forward primer: 5′-CCA […]-3′ (SEQ ID NO:3), GAPDH reverse primer: 5′-TCTAGACGGCAG GTCAGGTCCACC-3′ (SEQ ID NO:4) (598 bp). PCRs were initiated at 94° C. for 2 min, followed by 28 cycles of 94° C. for 1 min, 1 min annealing temperature, 72° C. for 1 min, and final extension at 72° C. for 5 min. The annealing temperature for cyclin D1 and GAPDH was 60° C. Primers and PCR conditions for RASSF1A are used as described by Rong et al. (Oncogene. 2004, 23, 8216-8230). After amplification, PCR products were separated on 1.5% agarose gels and visualized by ethidium bromide fluorescence using the Fuji LAS-1000 Imager. Images were captured and imported to Adobe Photoshop. Band intensities were quantified by using ImageJ software (NIH, Bethesda, Md.).
It has been reported that mRNA levels of RASSF1A correlate to its protein expression levels (Rong et al. Oncogene, 2004, 23: 8216-8230). To investigate the effects of the synthetic compounds on RASSF1A and cyclin D1 expression, levels of the respective mRNAs in treated cells compared to control were analyzed (FIG. 3). […] Because overexpression of cyclin D1 is associated with tumorigenicity and proliferation in a variety of tumors, including prostate cancers, this downregulation provides a cancer treatment method (Chen, Y. et al. Oncogene. 1998, 16, 1913-1920; Musgrove, E. A. et al. Proc. Natl. Acad. Sci. USA. 1994, 91, 8022-8026).

Data set [2] relates to PC3 cells. The data set is described as follows: Cell growth assay, trypan blue dye exclusion count. Format: cell-based. As for the experimental part:
Cell Line and Cell Growth Assay. Human prostate cancer cell line PC-3 was procured from the American Type Cell Culture Collection (Manassas, Va.). Cells were grown in IMEM without phenol red (Invitrogen, Carlsbad, Calif.) with 10% fetal bovine serum, 2 mM glutamine, 100 U/mL penicillin G sodium, and 100 μg/mL streptomycin sulfate (Sigma, St. Louis, Mo.) in the presence of 5% CO2 at 37° C. For the cell growth experiment, PC-3 cells were seeded in 6-well plates in triplicate with an initial density of 2×10^3 cells per well. Twenty-four hours after seeding, the attached cells were treated with vehicle (DMSO) or 1, 5, 15, 30 and 60 μM compound. After another twenty-four hours, the cells were washed with 1×PBS, trypsinized and re-suspended in complete growth medium. Trypan blue (0.4%) was added to the cell suspension and both live and dead cells were counted using a hemocytometer.
Compounds 6-10 were screened for growth inhibition in PC-3 human prostate cancer cells using previously reported methods (Table 1; Sinha et al. The Prostate. 2006, 66, 1257-1265). […] This was unexpected, since the methyl moiety of mahanine is in the 3-position. Compound 9, with its GI50 value near that of the compound 6 series (compounds 6, 6a, 8) and a deprotected hydroxyl group in the 2-position, implies that whatever hindrance is imposed by a methyl in the 3-position can be partially overcome if steric bulk at the 2-position is reduced. Indeed, looking at the structure of mahanine, the restraint of the ether cycle may provide enough reduction of apparent bulk at the 2-position to moderate its methyl in the 3-position. Additionally, the ether ring system puts the equivalent of a methyl group in the 1-position, which could also be aiding in the low μM activity of mahanine, if the relatively lower values for the compound 6 series are any indication. Moreover, analyzing the structure of compound 10 based on the same criteria, the double-bonded carbon of the ether cycle in the 3-position along with bulk off the 2-position might explain its lesser growth inhibition when compared to mahanine, while the methyl in the 1-position still gives it better activity than compounds 7 and 7a.

Data set [3] deals with T1, DNMT3b (Homo sapiens, UniProt Q9UBC3).
T1 construct: endogenous in cells; host or cells: PC-3 human prostate cancer cells
The data set is described as follows: Multiphoton laser imaging, DNMT3b antibody staining. Format: cell-based. The settings on record: PC-3 cells, 5 μM. As for the experimental part: (A) Fluorescent spectrum of compound 6a; (B) PC-3 cells were treated with a 5 μM solution of compound 6a for 1 hr before being fixed and stained with propidium iodide and DNMT3b antibody; (C) Cells were treated with a 5 μM solution of compound 6a for 6 hr before fixation; (D) Cells were treated with a 5 μM solution of DMSO for 6 hr before fixation. The frames in each set of images are from left to right, top to bottom: propidium iodide; clear field; DNA methyltransferase 3b (DNMT3b); compound 6a or vehicle; and merged. Compound 6a was excited at 725 nm with a multiphoton laser and imaged with a 500-550 nm filter. Arrows indicate representative cells in which DNMT3b is solely in the cytoplasm.
Multiphoton laser imaging. After incubating slides with a fibronectin/cortactin solution for 30 minutes, PC-3 cells were plated onto the slides and incubated overnight. The cells were then treated with a 5 μM solution of compound 6a or DMSO control and incubated for 1-6 hour before washing with PBS. The slides were fixed with a 4% formaldehyde solution, washed with PBS then treated with propidium iodide (nuclear localization) and DNMT3a or DNMT3b. The compound was excited at 725 nm with a multiphoton laser and imaged with a 500-550 nm filter.
The dansyl moiety present in compound 6a allows it to visibly fluoresce at 552 nm when excited at 370 nm (FIG. 4A). […]

In general, GI50 refers to the concentration at which growth is held to half of that of the control. Regarding `COc1ccc2c(c1)[nH]c1c(C)c(OS(=O)(=O)c3cccc4c(N(C)C)cccc34)ccc12` [Compound 6a, 7-Methoxy-1-methyl-9H-carbazol-2-yl 5-(dimethylamino)naphthalene-1-sulfonate], the “cyclin D1 mRNA level versus control” value in data set [1] is given as “corresponding decrease in cyclin D1”. In data set [2], the “cytotoxicity compared to mahanine” value is “less cytotoxic than mahanine”. Further, the GI50 in data set [2] (Homo sapiens, PC-3, concentration for 50% growth inhibition in PC3 cells, 24 hours of treatment, mean ± SEM of three observations, read-out: GI50) was found to be 1500 ± 110 nM. For the same compound, the “increase in activity compared to mahanine in inhibition of growth of prostate cancer cells” value in data set [2] (refers to Table 1) came to 5 fold. The DNMT3b localization result in data set [3] (one hour) is listed as “a population of treated cells that have DNMT3b only in the cytoplasm”; in data set [3] (six hours) it was “majority of treated cells having DNMT3b only in the cytoplasm”.
